In this test the target is T1, IRAK4 (Homo sapiens, UniProt Q9NWZ3).
T1 construct: Degradation of IRAK4 in OCI-LY10 was quantitatively measured using Meso Scale Discovery technology; endogenous in cells; host or cells: OCI-LY10
T1 sequence (Q9NWZ3 1-460): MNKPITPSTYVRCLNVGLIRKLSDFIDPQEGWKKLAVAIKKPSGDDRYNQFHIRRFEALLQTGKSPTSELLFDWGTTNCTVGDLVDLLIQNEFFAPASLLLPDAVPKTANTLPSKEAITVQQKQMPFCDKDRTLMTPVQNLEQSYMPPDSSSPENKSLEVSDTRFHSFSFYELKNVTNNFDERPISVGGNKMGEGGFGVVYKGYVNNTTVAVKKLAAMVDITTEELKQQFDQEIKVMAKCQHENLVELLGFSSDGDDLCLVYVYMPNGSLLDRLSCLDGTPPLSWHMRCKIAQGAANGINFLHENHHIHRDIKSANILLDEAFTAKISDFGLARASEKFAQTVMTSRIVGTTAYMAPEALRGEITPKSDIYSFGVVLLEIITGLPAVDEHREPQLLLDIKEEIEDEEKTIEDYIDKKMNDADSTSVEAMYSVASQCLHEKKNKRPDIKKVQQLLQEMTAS
Kind of test: IRAK4 MSD Degradation in OCI-LY10. Format: cell-based. Conditions: OCI-LY10 cells, MSD. Put shortly: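 DC50, from a three-parameter logistic fit and reported as letter bins A (<0.01 μM), B, C, D (>0.2 μM or not tested), reflects IRAK4 loss measured by MSD electrochemiluminescence in OCI-LY10 lysates. Treatment: 8 doses, 1:3 steps, top 1 to 10 μM, 4 to 24 h, 37 °C.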

The mark [1] stands for this setting: 4 hrs incubation, read-out: IRAK4 degradation in OCI-LY10 at 4 hrs: DC50.
[2] abbreviates: 24 hrs incubation, read-out: IRAK4 degradation in OCI-LY10 at 24 hrs: DC50.

Like-named read-outs stand apart in the source and are kept apart here.

As for `Cn1c(=O)n(C2CCC(=O)NC2=O)c2cccc(C#CCN3CCN(C[C@H]4CC[C@H](n5cc(NC(=O)c6cnn7cccnc67)c(C(C)(C)O)n5)CC4)CC3)c21` (some centres unmarked) [I-284], the DC50 by setting is: under setting [1], greater than 200 nM; under setting [2], greater than 200 nM.

Turning to `Cn1c(=O)n(C2CCC(=O)NC2=O)c2cccc(C#CCN3CCN(C[C@H]4CC[C@H](n5cc(NC(=O)c6cnn7ccc(N8CCC8)nc67)c(C(C)(C)O)n5)CC4)CC3)c21` (some centres unmarked) [I-285], the 50% degradation concentration (DC50) by setting is: under setting [1], greater than 200 nM; under setting [2], greater than 200 nM.

Take `Cn1c(=O)n(C2CCC(=O)NC2=O)c2cccc(C#CCN3CCN(C[C@H]4CC[C@H](n5cc(NC(=O)c6cnn7ccc(N8CCOC9(CC9)C8)nc67)c(C(F)F)n5)CC4)CC3)c21` (some centres unmarked) [I-286]: the DC50 reads like this: under setting [1], greater than 200 nM; under setting [2], less than 10 nM.

Take `Cn1c(=O)n(C2CCC(=O)NC2=O)c2cccc(C#CCN3CCN(C[C@H]4CC[C@H](n5cc(NC(=O)c6cnn7ccc(N8CCOC9(CCC9)C8)nc67)c(C(F)F)n5)CC4)CC3)c21` (some centres unmarked) [I-287]: the 50% degradation concentration (DC50) under setting [1] was greater than 200 nM and the DC50 under setting [2] was less than 10 nM.

Turning to `CC1CN(c2ccn3ncc(C(=O)Nc4cn([C@H]5CC[C@H](CN6CCN(CC#Cc7cccc8c7n(C)c(=O)n8C7CCC(=O)NC7=O)CC6)CC5)nc4C(F)F)c3n2)CCO1` (some centres unmarked) [I-288], the half-maximal degradation concentration (DC50) by setting is: under setting [1], greater than 200 nM; under setting [2], greater than 200 nM.

Consider `CC1CN(c2ccn3ncc(C(=O)Nc4cn([C@H]5CC[C@H](CN6CCN(CC#Cc7cccc8c7n(C)c(=O)n8C7CCC(=O)NC7=O)CC6)CC5)nc4C(F)F)c3n2)CC(C)O1` (some centres unmarked) [I-289], for which the DC50 was greater than 200 nM under setting [1] and greater than 200 nM under setting [2].

Regarding `Cn1c(=O)n(C2CCC(=O)NC2=O)c2cccc(C#CCN3CCN(C[C@H]4CC[C@H](n5cc(NC(=O)c6cnn7ccc(N8C[C@H]9CC[C@@H](C8)O9)nc67)c(C(F)F)n5)CC4)CC3)c21` (some centres unmarked) [I-290], the DC50 reads like this: under setting [1], greater than 200 nM; under setting [2], less than 10 nM.

On to `Cn1c(=O)n(C2CCC(=O)NC2=O)c2cccc(C#CCN3CCN(C[C@H]4CC[C@H](n5cc(NC(=O)c6cnn7ccc(N8CCCOCC8)nc67)c(C(F)F)n5)CC4)CC3)c21` (some centres unmarked) [I-291], for which the DC50 reads like this: under setting [1], greater than 200 nM; under setting [2], less than 10 nM.

Consider `Cc1ccc(-c2nn([C@H]3CC[C@H](CN(C)C4CCN(c5cccc6c5n(C)c(=O)n6C5CCC(=O)NC5=O)CC4)CC3)cc2NC(=O)c2cnn3cccnc23)nc1` (some centres unmarked) [I-292], for which the DC50 is, setting by setting: under setting [1], greater than 200 nM; under setting [2], less than 10 nM.

As for `Cc1ccc(-c2nn([C@H]3CC[C@H](CN(C)C4CCN(c5cccc6c5n(C)c(=O)n6C5CCC(=O)NC5=O)CC4)CC3)cc2NC(=O)c2cnn3cccnc23)c(F)c1` (some centres unmarked) [I-293], the DC50 is greater than 200 nM under setting [1] and greater than 200 nM under setting [2].

As to `Cn1c(=O)n(C2CCC(=O)NC2=O)c2cccc(C#CCN3CCN(C[C@H]4CC[C@H](n5cc(NC(=O)c6cnn7ccc(N8CCSCC8)nc67)c(C(F)F)n5)CC4)CC3)c21` (some centres unmarked) [I-294], the 50% degradation concentration (DC50) is greater than 200 nM under setting [1] and less than 10 nM under setting [2].

`Cn1c(=O)n(C2CCC(=O)NC2=O)c2cccc(C#CCN3CCN(C[C@H]4CC[C@H](n5cc(NC(=O)c6cnn7ccc(N8CCS(=O)(=O)CC8)nc67)c(C(F)F)n5)CC4)CC3)c21` (some centres unmarked) [I-295]: the DC50 runs as follows: under setting [1], greater than 200 nM; under setting [2], less than 10 nM.

For the compound `Cn1c(=O)n(C2CCC(=O)NC2=O)c2cccc(C#CCN3CCN(C[C@H]4CC[C@H](n5cc(NC(=O)c6cnn7ccc(N8CCC9(CC8)COC9)nc67)c(C(F)F)n5)CC4)CC3)c21` (some centres unmarked) [I-296], the DC50 reads like this: under setting [1], 10 to 100 nM; under setting [2], greater than 200 nM.

In the case of `CN1CC2(CCN(c3ccn4ncc(C(=O)Nc5cn([C@H]6CC[C@H](CN7CCN(CC#Cc8cccc9c8n(C)c(=O)n9C8CCC(=O)NC8=O)CC7)CC6)nc5C(F)F)c4n3)CC2)C1` (some centres unmarked) [I-297], the half-maximal degradation concentration (DC50) by setting is: under setting [1], greater than 200 nM; under setting [2], greater than 200 nM.

On to `Cn1c(=O)n(C2CCC(=O)NC2=O)c2cccc(C#CCN3CCN(C[C@H]4CC[C@H](n5cc(NC(=O)c6cnn7ccc(C8CCOCC8)nc67)c(C(F)F)n5)CC4)CC3)c21` (some centres unmarked) [I-298], for which the DC50 runs as follows: under setting [1], greater than 200 nM; under setting [2], less than 10 nM.

In the case of `Cn1c(=O)n(C2CCC(=O)NC2=O)c2cccc(C#CCN3CCN(C[C@H]4CC[C@H](n5cc(NC(=O)c6cnn7ccc(N8CCNCC8)nc67)c(C(F)F)n5)CC4)CC3)c21` (some centres unmarked) [I-299], the DC50 is, setting by setting: under setting [1], greater than 200 nM; under setting [2], less than 10 nM.

With `CN1CCN(c2ccn3ncc(C(=O)Nc4cn([C@H]5CC[C@H](CN6CCN(CC#Cc7cccc8c7n(C)c(=O)n8C7CCC(=O)NC7=O)CC6)CC5)nc4C(F)F)c3n2)CC1` (some centres unmarked) [I-300], the DC50 runs as follows: under setting [1], greater than 200 nM; under setting [2], less than 10 nM.

With `Cn1c(=O)n(C2CCC(=O)NC2=O)c2cccc(C#CCN3CCN(C[C@H]4CC[C@H](n5cc(NC(=O)c6cnn7ccc(C8COCCN8)nc67)c(C(F)F)n5)CC4)CC3)c21` (some centres unmarked) [I-301], the DC50 runs as follows: under setting [1], greater than 200 nM; under setting [2], greater than 200 nM.

With `CN1CCOCC1c1ccn2ncc(C(=O)Nc3cn([C@H]4CC[C@H](CN5CCN(CC#Cc6cccc7c6n(C)c(=O)n7C6CCC(=O)NC6=O)CC5)CC4)nc3C(F)F)c2n1` (some centres unmarked) [I-302], the DC50 reads like this: under setting [1], greater than 200 nM; under setting [2], greater than 200 nM.

In the case of `Cn1c(=O)n(C2CCC(=O)NC2=O)c2cccc(C#CCOC3CCN(C[C@H]4CC[C@H](n5cc(NC(=O)c6cnn7ccc(N8CCSCC8)nc67)c(C(F)F)n5)CC4)CC3)c21` (some centres unmarked) [I-303], the half-maximal degradation concentration (DC50) is greater than 200 nM under setting [1] and less than 10 nM under setting [2].

Regarding `Cn1c(=O)n(C2CCC(=O)NC2=O)c2cccc(C#CCOC3CCN(C[C@H]4CC[C@H](n5cc(NC(=O)c6cnn7ccc(N8CCS(=O)(=O)CC8)nc67)c(C(F)F)n5)CC4)CC3)c21` (some centres unmarked) [I-304], the half-maximal degradation concentration (DC50) by setting is: under setting [1], greater than 200 nM; under setting [2], less than 10 nM.

Consider `Cn1c(=O)n(C2CCC(=O)NC2=O)c2cccc(C#CCOC3CCN(C[C@H]4CC[C@H](n5cc(NC(=O)c6cnn7ccc(N8CCC9(CC8)COC9)nc67)c(C(F)F)n5)CC4)CC3)c21` (some centres unmarked) [I-305], for which the DC50 reads like this: under setting [1], greater than 200 nM; under setting [2], greater than 200 nM.

For the compound `CN1CC2(CCN(c3ccn4ncc(C(=O)Nc5cn([C@H]6CC[C@H](CN7CCC(OCC#Cc8cccc9c8n(C)c(=O)n9C8CCC(=O)NC8=O)CC7)CC6)nc5C(F)F)c4n3)CC2)C1` (some centres unmarked) [I-306], the DC50 is greater than 200 nM under setting [1] and greater than 200 nM under setting [2].

As to `Cn1c(=O)n(C2CCC(=O)NC2=O)c2cccc(C#CCOC3CCN(C[C@H]4CC[C@H](n5cc(NC(=O)c6cnn7ccc(C8CCOCC8)nc67)c(C(F)F)n5)CC4)CC3)c21` (some centres unmarked) [I-307], the DC50 under setting [1] is greater than 200 nM and the DC50 under setting [2] was less than 10 nM.

Regarding `Cn1c(=O)n(C2CCC(=O)NC2=O)c2cccc(C#CCOC3CCN(C[C@H]4CC[C@H](n5cc(NC(=O)c6cnn7ccc(N8CCNCC8)nc67)c(C(F)F)n5)CC4)CC3)c21` (some centres unmarked) [I-308], the 50% degradation concentration (DC50) is greater than 200 nM under setting [1] and less than 10 nM under setting [2].

For the compound `CN1CCN(c2ccn3ncc(C(=O)Nc4cn([C@H]5CC[C@H](CN6CCC(OCC#Cc7cccc8c7n(C)c(=O)n8C7CCC(=O)NC7=O)CC6)CC5)nc4C(F)F)c3n2)CC1` (some centres unmarked) [I-309], the 50% degradation concentration (DC50) under setting [1] was greater than 200 nM and the 50% degradation concentration (DC50) under setting [2] is less than 10 nM.

As for `Cn1c(=O)n(C2CCC(=O)NC2=O)c2cccc(C#CCOC3CCN(C[C@H]4CC[C@H](n5cc(NC(=O)c6cnn7ccc(C8COCCN8)nc67)c(C(F)F)n5)CC4)CC3)c21` (some centres unmarked) [I-310], the 50% degradation concentration (DC50) reads like this: under setting [1], greater than 200 nM; under setting [2], greater than 200 nM.

With `CN1CCOCC1c1ccn2ncc(C(=O)Nc3cn([C@H]4CC[C@H](CN5CCC(OCC#Cc6cccc7c6n(C)c(=O)n7C6CCC(=O)NC6=O)CC5)CC4)nc3C(F)F)c2n1` (some centres unmarked) [I-311], the DC50 is greater than 200 nM under setting [1] and greater than 200 nM under setting [2].

(Values after patent US12091411B2, “IRAK degraders and uses thereof” (Kymera Therapeutics, Inc., priority 2022, dated 2024).)
